In experiment [1] the test system is HIBM Gne M712T mutated pups. In words: Survival of mutant HIBM Gne M712T pups after treatment. It counts as in vivo, mouse. The note with it: for survival of mutant pups at P5: Gne M712T mutant pups, untreated 8% survived; for survival rates: orally delivered in drinking water, -/- pups.
The test system of the next experiment is cultured cells. The note with it: Charter et al. 2000; cited from earlier work.
Experiment [2] has as its system Gne-deficient mouse embryonic stem cells. The settings on record: growth medium supplemented with ManNAc; Schwarzkopf et al. 2002; cited from earlier work.
The mark [3] stands for this setting: oral (not liposome-embedded), addition to drinking water.

Data on 4 compounds can be found in patent publication US20130058998A1, “ENCAPSULATED N-ACETYLMANNOSAMINE OR N-ACETYLNEURAMINIC ACID TO INCREASE SIALYLATION” (United States of America as represented by the Secretary, …, priority 2011, published 2013).

`CC(=O)N[C@H]1[C@H]([C@H](O)[C@H](O)CO)OC(O)(C(=O)O)C[C@@H]1O` (some centres unmarked) [NANA, N-acetylneuraminic acid]: the “survival of mutant pups at P5” value in experiment [1] (setting [3]) is 10%. The compound also showed a survival rates in experiment [1] of 10%.
As for `[N-]=[N+]=NCC(=O)N[C@@H]1C(O)O[C@H](CO)[C@@H](O)[C@@H]1O` (some centres unmarked) [ManNAz, N-azidoacetyl-mannosamine], the “incorporation of sialic acid analogs (SiaLev or SiaNAz) into cell surface glycoconjugates” value in the experiment with cultured cells is on record as “resulted in incorporation of the downstream sialic acid analogs”.
Regarding `CC(=O)CCC(=O)N[C@@H]1C(O)O[C@H](CO)[C@@H](O)[C@@H]1O` (some centres unmarked) [ManLev, N-levulinoylmannosamine], the “incorporation of sialic acid analogs (SiaLev or SiaNAz) into cell surface glycoconjugates” value with cultured cells is “resulted in incorporation of the downstream sialic acid analogs”.
With `CC(=O)N[C@H]1[C@@H](O)[C@H](O)[C@@H](CO)O[C@H]1O` [ManNAc, N-acetyl-D-mannosamine], the “survival of mutant pups at P5” value in experiment [1] (intravenous (IV) injection at P1, ManNAc-Lipoplex in 2 different mouse backgrounds) was found to be 8%; in experiment [1] (setting [3]) it was 48%. The survival rates in experiment [1] turned out to be 48%. Moreover, the “sialylation of hyposialylated cells” value in experiment [2] is listed as “became resialylated”.
